38 molecules from patent US7868205B2, “Inhibitors of histone deacetylase” (MethylGene Inc., priority 2003, dated 2011) can be followed below.

The test system of test [1] is HCT116 human colon cancer cells. In words: MTT assay, antiproliferative activity. In kind it is cell-based. Particulars: HCT-116, 72 hours. As to the method: (§1) Table 6C provides data on inhibition of HDAC1 enzyme, on antiproliferative activities (HCT116 human colon cancer cells) of the compounds using 3-[4,5-dimethylthiazol-2-yl-2,5-diphenyltetrazolium]bromide (MTT) assay, as well as induction of p21^WAF1/Cip1 tumor suppressor gene.
Compounds at various concentrations were added to human colon cancer HCT116 cells plated in 96-well plates. Cells were incubated for 72 hours at 37° C. in 5% CO2 incubator. MTT (3-[4,5-dimethylthiazol-2-yl]-2,5 diphenyl tetrazolium bromide, Sigma) was added at a final concentration of 0.5 mg/ml and incubated with the cells for 4 hours before an equal volume of solubilization buffer (50% N,N-dimethylformamide, 20% SDS, pH 4.7) was added onto cultured cells. After overnight incubation, solubilized dye was quantified by colorimetric reading at […] using a reference at 630 nM. OD values were converted to cell numbers according to a standard growth curve of the relevant cell line. The concentration which reduces cell numbers to 50% of those of DMSO-treated cells is determined as MTT IC50,
On the technique in general: Formazan colour is commonly taken as a measure of viable cells.

For test [2], the target named is human HDAC-1 (Homo sapiens, UniProt Q13547). The test can be described thus: Inhibition of histone deacetylase enzymatic (HDAC-1) activity. In kind it is biochemical. As to the method:
The following protocol was used to assay the compounds of the invention.
The mixture was pre-incubated for 5 minutes at room temperature. The reaction was started by bringing the temperature to 37° C. and adding 16 μl substrate.

Test [3] relates to p21^WAF1/Cip1 tumor suppressor gene. In words: p21WAF1/Cip1 assay (p21 promoter-driven luciferase reporter). In kind it is cell-based, human. The settings on record: for P21 (HCT116) μM, effective concentration (EC) for induction of p21: HCT116 cells with p21 promoter-driven luciferase, 16 hours, compared with MS-275. As for the experimental part:
as §1
HCT116 cells were stably transfected with reporter plasmids encoding the p21 promoter-driven luciferase. Cells were treated with indicated concentration of HDAC inhibitors for 16 hours before cells were harvested and luciferase activity analyzed. The effective concentration (EC) of MS-275 was designated as 1 uM. The ability of HDAC inhibitor was compared with that of MS-275 (T. Suzuki, et. al J. Med. Chem., 1999, 3001-3003).

Where [4] appears, read: Table 5, Boc-Lys(Ac)-AMC substrate, 37° C., 20 minutes, read-out: HDAC-1 (μM), inhibition of histone deacetylase.

SMILES strings stand for the structures. Where two headings read alike, the source gives them in different places.

human HDAC-1, sequence (Q13547 whole entry): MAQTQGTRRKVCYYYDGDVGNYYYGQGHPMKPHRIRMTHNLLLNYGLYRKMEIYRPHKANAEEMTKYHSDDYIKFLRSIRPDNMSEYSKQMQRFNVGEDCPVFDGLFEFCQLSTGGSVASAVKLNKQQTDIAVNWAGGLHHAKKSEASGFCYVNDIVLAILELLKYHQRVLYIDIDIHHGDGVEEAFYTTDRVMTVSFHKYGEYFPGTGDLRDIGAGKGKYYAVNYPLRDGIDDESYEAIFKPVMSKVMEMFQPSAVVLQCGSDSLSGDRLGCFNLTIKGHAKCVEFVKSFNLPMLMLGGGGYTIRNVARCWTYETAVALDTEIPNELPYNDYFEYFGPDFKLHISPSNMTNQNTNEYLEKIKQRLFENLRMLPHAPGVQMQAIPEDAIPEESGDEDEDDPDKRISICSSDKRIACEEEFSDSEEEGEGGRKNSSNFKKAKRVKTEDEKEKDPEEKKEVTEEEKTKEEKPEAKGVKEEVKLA

With `Nc1ccc(-c2cccs2)cc1NC(=O)c1ccc2c(c1)OCCO2` [Compound 256b], the IC50 in test [1] is < 1000 nM; in test [2] (Table 6C), < 1 µM.

For the molecule `Nc1ccc(-c2cccs2)cc1NC(=O)c1ccc(Cn2c(=O)[nH]c3ccccc3c2=O)cc1` [compound 349], the “P21 (HCT116) μM, effective concentration (EC) for induction of p21” value (from here on “P21 (HCT116) μM, effective concentration”) in test [3] was “b (1≦b≦20)”. Besides, the figures for the IC50 in test [1] and in test [2] (Table 6C) were < 1000 nM and < 1 µM, respectively.

In the case of `Nc1ccc(-c2cccs2)cc1NC(=O)c1ccsc1` [258nn, N-(2-amino-5-(thiophen-2-yl)phenyl)thiophene-3-carboxamide], the “P21 (HCT116) μM, effective concentration” value in test [3] is given as “b (1≦b≦20)”. In addition, the IC50 was 1000 to 20000 nM in test [1] and < 1 µM in test [2] (Table 6C).

As to `CN1CCN(C(=O)Nc2ccc(C(=O)Nc3cc(-c4cccs4)ccc3N)cc2)CC1` [Compound 164], the IC50 was < 1000 nM in test [1] and < 1 µM in test [2] (Table 6C).

As to `Nc1ccc(-c2cccs2)cc1NC(=O)c1ccc2c(c1)OCO2` [Compound 256a], the IC50 in test [1] was < 1000 nM; in test [2] (Table 6C) it was < 1 µM.

With `N#Cc1ccc(C(=O)Nc2cc(-c3cccs3)ccc2N)cc1` [Compound 173], the IC50 in test [1] was 1000 to 20000 nM; in test [2] (Table 6C) it was < 1 µM.

In the case of `Cn1nnc2cc(C(=O)Nc3cc(-c4cccs4)ccc3N)ccc21` [Compound 286], the IC50 in test [1] is 1000 to 20000 nM; in test [2] (Table 6C), < 1 µM.

For the molecule `Nc1ccc(-c2cccs2)cc1NC(=O)c1ccc(SC(F)(F)F)cc1` [Compound 143c], the results for the IC50 in test [1] and in test [2] (Table 6C) were 1000 to 20000 nM and < 1 µM, respectively.

In the case of `Cn1cnc2cc(C(=O)Nc3cc(-c4cccs4)ccc3N)ccc21` [Compound 283], the IC50 is < 1000 nM in test [1] and < 1 µM in test [2] (Table 6C).

As to `COc1cc(C(=O)Nc2cc(-c3cccs3)ccc2N)cc2c1OCO2` [Compound 256c], the IC50 in test [1] is < 1000 nM; in test [2] (Table 6C), < 1 µM.

On to `Nc1ccc(-c2cccs2)cc1NC(=O)c1ccc(O)cc1` [258pp, N-(2-amino-5-(thiophen-2-yl)phenyl)-4-hydroxybenzamide], for which the “P21 (HCT116) μM, effective concentration” value in test [3] is on record as “b (1≦b≦20)”. For the same molecule, the IC50 in test [1] is < 1000 nM; in test [2] (Table 6C), < 1 µM.

For the molecule `Cc1nc2ccc(C(=O)Nc3cc(-c4cccs4)ccc3N)cc2o1` [286aa, N-(2-amino-5-(thiophen-2-yl)phenyl)-2-methylbenzo[d]oxazole-6-carboxamide], the “P21 (HCT116) μM, effective concentration” value in test [3] is recorded as “b (1≦b≦20)”. Moreover, the IC50 was < 1000 nM in test [1] and < 1 µM in test [2] (Table 6C).

Consider `COc1cccc(C(=O)Nc2cc(-c3cccs3)ccc2N)c1` [Compound 181], for which the IC50 in test [1] is < 1000 nM; in test [2] (Table 6C), < 1 µM.

Regarding `CN(C)CCOC(=O)Nc1ccc(C(=O)Nc2cc(-c3cccs3)ccc2N)cc1` [164cc, 2-(dimethylamino)ethyl 4-((2-amino-5-(thiophen-2-yl)phenyl)carbamoyl)phenylcarbamate], the “P21 (HCT116) μM, effective concentration” value in test [3] was “b (1≦b≦20)”. In addition, the IC50 is < 1000 nM in test [1] and < 1 µM in test [2] (Table 6C).

Regarding `Cc1ccc(S(=O)(=O)Nc2ccc(/C=C/C(=O)Nc3cc(-c4cccs4)ccc3N)cc2)cc1` [Compound 146], the IC50 in test [1] is < 1000 nM; in test [2] (Table 6C), < 1 µM.

On to `CC(=O)Oc1ccc(C(=O)Nc2cc(-c3cccs3)ccc2N)cc1` [Compound 184], for which the IC50 in test [1] is < 1000 nM; in test [2] (Table 6C) it was < 1 µM.

As for `Nc1ccc(-c2cccs2)cc1NC(=O)c1ccc(OC(=O)c2ccc(O)cc2)cc1` [258mm, 4-((2-amino-5-(thiophen-2-yl)phenyl)carbamoyl)phenyl 4-hydroxybenzoate], in test [3], the “P21 (HCT116) μM, effective concentration” value is given as “b (1≦b≦20)”. The IC50 was < 1000 nM in test [1] and < 1 µM in test [2] (Table 6C).

With `COc1ccc(C(=O)Nc2cc(-c3cccs3)ccc2N)cc1` [258qq, N-(2-amino-5-(thiophen-2-yl)phenyl)-4-methoxybenzamide], in test [3], the “P21 (HCT116) μM, effective concentration” value is “b (1≦b≦20)”. The IC50 is < 1000 nM in test [1] and < 1 µM in test [2] (Table 6C).

For the molecule `Cc1cc(C)nc(N(C)c2ccc(C(=O)Nc3cc(-c4cccs4)ccc3N)cc2)n1` [258hh, N-(2-amino-5-(thiophen-2-yl)phenyl)-4-((4,6-dimethylpyrimidin-2-yl)(methyl)amino)benzamide], the “P21 (HCT116) μM, effective concentration” value in test [3] is recorded as “b (1≦b≦20)”. In addition, the figures for the IC50 in test [1] and in test [2] (Table 6C) were < 1000 nM and < 1 µM, respectively.

For the molecule `Nc1ccc(-c2cccs2)cc1NC(=O)c1ccc(CNC(=O)OCc2cccnc2)cc1` [Compound 143a], the IC50 in test [1] is < 1000 nM.

In the case of `COc1cc(CN2CCc3ccc(C(=O)Nc4cc(-c5cccs5)ccc4N)cc32)cc(OC)c1OC` [Cpd 23, N-[2-amino-5-(2-thienyl)phenyl]-1-(3,4,5-trimethoxybenzyl)indoline-6-carboxamide], the IC50 in test [2] (setting [4]) is < 1 µM.

`COc1ccc(NCc2ccc(C(=O)Nc3cc(Br)ccc3N)cc2)cc1OC` [Cpd 87, N-(2-amino-5-bromophenyl)-4-{[(3,4-dimethoxyphenyl)amino]methyl}benzamide]: the IC50 in test [2] (setting [4]) was 1 to 20 µM.

Consider `Nc1ccc(-c2cccs2)cc1NC(=O)c1ccc(F)cc1` [Compound 143b], for which the IC50 in test [1] is 1000 to 20000 nM; in test [2] (Table 6C), < 1 µM.

`CN(C)CCOc1ccc2nc(SCc3ccc(C(=O)Nc4cc(-c5cccs5)ccc4N)cc3)[nH]c2c1` [Cpd 50, N-[2-amino-5-(2-thienyl)phenyl]-4[({6-[2-(dimethylamino)ethoxy]-1H-benzimidazol-2-yl}thio)methyl]benzamide]: the IC50 in test [2] (setting [4]) was < 1 µM.

On to `CCCCc1ccc(NC(=O)c2ccc(C)cc2)c(N)c1` [Cpd 71, N-(2-amino-4-butylphenyl)-4-methylbenzamide], for which the IC50 in test [2] (setting [4]) was > 20 µM.

For `Nc1ccccc1NC(=O)c1ccc(CNC(=O)OCc2cccnc2)cc1` [MS-275, reference compound], the “effective concentration (EC) for p21 induction” value in test [3] (reference compound, value designated) was 1 µM.

Turning to `Nc1ccc(-c2cccs2)cc1NC(=O)c1ccc(CN2CCOCC2)cc1` [Compound 242], the figures for the IC50 in test [1] and in test [2] (Table 6C) were < 1000 nM and < 1 µM, respectively.

Regarding `COc1ccc(NCc2ccc(C(=O)Nc3csc(-c4cccs4)c3N)cc2)cc1OC` [Cpd 62, N-(3-amino-2,2′-bithien-4-yl)-4-{[(3,4-dimethoxyphenyl)amino]methyl}benzamide], in test [2] (setting [4]), the IC50 was > 20 µM.

For the molecule `COc1ccc(NCc2ccc(C(=O)Nc3cccc(-c4cccs4)c3)cc2)cc1OC` [Cpd 32, 4-{[(3,4-dimethoxyphenyl)amino]methyl}-N-[3-(2-thienyl)phenyl]benzamide], the IC50 in test [2] (setting [4]) is > 20 µM.

In the case of `Nc1ccc(-c2cccs2)cc1NC(=O)c1ccc2[nH]cnc2c1` [Compound 258d], the IC50 in test [1] was < 1000 nM; in test [2] (Table 6C) it was < 1 µM.

Regarding `COc1ccc(NCc2ccc(C(=O)Nc3cc(C(F)(F)F)ccc3N)cc2)cc1OC` [A, reference compound], in test [2] (Table 6A, comparative data for planar substituent, read-out: HDAC-1 activity (μm)), the IC50 was 1 to 20 µM.

Take `COc1ccc(NCc2ccc(C(=O)Nc3ccc(-c4cccs4)cc3[N+](=O)[O-])cc2)cc1OC` [Cpd 15, 4-[(3,4-dimethoxy-phenylamino)-methyl]-N-(2-nitro-4-thiophen-2-yl-phenyl)-benzamide]: in test [2] (setting [4]), the IC50 is > 20 µM.

Take `COc1cc(OC)c2cc(C(=O)Nc3cc(-c4cccs4)ccc3N)oc2c1` [Compound 245e]: the IC50 in test [1] was < 1000 nM; in test [2] (Table 6C), < 1 µM.

On to `COc1cc(NCc2ccc(/C=C/C(=O)Nc3ccccc3N)cc2)cc(OC)c1OC` [QQ, reference compound], for which, in test [2] (Table 6B, comparative data for planar substituent, read-out: HDAC-1 Activity), the IC50 fell in the range of 1 to 20 µM.

`Nc1ccc(-c2cccs2)cc1NC(=O)c1ccc2ncccc2c1` [258cc, N-(2-amino-5-(thiophen-2-yl)phenyl)quinoline-6-carboxamide]: the “P21 (HCT116) μM, effective concentration” value in test [3] is “b (1≦b≦20)”. Further, the IC50 in test [1] is < 1000 nM; in test [2] (Table 6C) it was < 1 µM.

For the molecule `COc1ccc(NCc2ccc(C(=O)Nc3ccc(-c4cccs4)cc3N)cc2)cc1OC` [Cpd 16, N-[2-amino-4-(2-thienyl)phenyl]-4-{[(3,4-dimethoxyphenyl)amino]methyl}benzamide], in test [2] (setting [4]), the IC50 fell in the range of 1 to 20 µM.

For the molecule `COc1ccc(NCc2ccc(C(=O)Nc3cc(F)c(F)cc3N)cc2)cc1OC` [B, N-(2-amino-4,5-difluorophenyl)-4-{[(3,4-dimethoxyphenyl)amino]methyl}benzamide, reference compound], the IC50 in test [2] (setting [4]) was 1 to 20 µM.

Regarding `CCCCc1ccc(N)c(NC(=O)c2ccc(CNc3ccc(OC)c(OC)c3)cc2)c1` [Cpd 68, N-(2-amino-5-butylphenyl)-4-{[(3,4-dimethoxyphenyl)amino]methyl}benzamide], the IC50 in test [2] (setting [4]) lay within 1 to 20 µM.
